Results reported in publication PMC9519552, “Activation of the human insulin receptor by non-insulin-related peptides” (Nature Communications, 2022).
Like-named read-outs stand apart in the source and are kept apart here. Positions of bridges follow the written chain, without caps; N, C: chain ends. Residues, ends and D or L forms follow the SMILES beside them.

What was measured:
[1] = target: T1, human holoIR-A over-expressed in HEK293 cells (Homo sapiens, UniProt P06213); experiment: Inhibition of hIR phosphorylation by peptides, co-incubated with BHI at its EC50 (ELISA); assay type: cell-based; details: for hIRA Phosph IC50 Run 1 / hIRA Phosph IC50 Run 2 / hIRA Phosph IC50 Run 3: inhibition of insulin-stimulated phosphorylation; for hIRA Phosph IC50 Run 1: BHI at its EC50, run 1; for hIRA Phosph IC50 Run 2: BHI at its EC50, run 2; for hIRA Phosph IC50 Run 3: BHI at its EC50, run 3; for IC50: read-out: hIRA Phosph IC50 Mean
T1 construct: expressed in transfected cells; host or cells: HEK293, stably transfected
Procedure: Phosphorylation was quantified using an ELISA technique. Ninety-six well, flat-bottom microplates (Greiner Bio-One) were pre-coated with 2 µg mL^−1 anti-C9 monoclonal antibody (Rho 1D4; University of British Columbia)[27] in 20 mM sodium carbonate, pH 9.6, at 4 °C for overnight prior to the assay. On the assay day, plates were washed 3× with 0.1% Tween in 50 mM Tris Buffer Saline, pH 7.5 (TBST), and then blocked for greater than 1 h at room temperature (RT) with 1% BSA (Sigma) in TBST.
Stably transfected HEK293 cells over-expressing human holoIR-A containing a C-terminal C9 epitope tag ([…]), were plated at 6 × 10^4 cells per well serum-starved using 0.1% BSA in DMEM (Gibco) for overnight at standard tissue culture condition. […] After a 15-min incubation in lysis buffer at 4 °C, the lysate was transferred to anti-C9 antibody coated capture plate (Rho 1D4; University of British Columbia)[27]. […] After a 1 h incubation at room temperature, the secondary antibody was removed by washing 3× with TBST. Signal detection occurred with the addition of TMB, an HRP substrate (Pierce). After 5–10 min, the reaction was stopped by adding an equal volume of 2 M H2SO4, and the absorbance readings at 450 nm (A450) were recorded using a Envision plate reader (PerkinElmer). Samples were tested in three independent assay runs on three different days.
Percent specific response (y-axis) was plotted versus the log concentration of compound (x-axis) using Prism Version 9.3.1 (GraphPad Software). Individual measurements are provided as Source Data.

[2] = target: T2, human IR-A (holoIR-A) (Homo sapiens, UniProt P06213); experiment: holoIR-A competitive radioligand binding assay (scintillation proximity assay); details: for Ki: IM172N22(-) mutant peptide set; for reduction in ki for hIR-A on substitution: relative to control peptide IM172N22 devoid of N-terminal phenylacetylation
T2 construct: expressed in transfected cells; host or cells: HEK293 (ATCC #CRL-1573), stably transfected; membrane preparation
Procedure: Cellular membranes were prepared from human embryonic kidney (HEK293; ATCC #CRL-1573) cells stably transfected with cDNA corresponding to human IR-A (holoIR-A) plus a C-terminal C9 tag ([…]) inserted within a pcDNA3.1 plasmid (Invitrogen), with positive clones selected with 800 μg mL^−1 neomycin and confirmed by Western Blot. Frozen cell pellets were thawed in ice-cold homogenization/resuspension buffer (50 mM Tris-HCl, pH 7.5) containing one cOmplete® protease inhibitor tablet with EDTA (Roche Diagnostics) per 50 mL buffer. Cells were homogenized with an overhead motor-driven Teflon-glass homogenizer using 15–20 strokes, followed by centrifugation at 1100 × g for 10 min at 4 °C. The supernatant was saved on ice, pellets were homogenized as before, and centrifuged at 1100 × g for 10 min at 4 °C. Both supernatants were combined and subsequently centrifuged at 35,000 × g for 60 min at 4 °C. The pellet was resuspended in buffer (4 to 5 mL g^−1 of starting cell paste) containing protease inhibitors and quick frozen in liquid nitrogen prior to storage at −80 °C. Protein concentration was determined using a BCA kit (Thermo Scientific) with bovine serum albumin (BSA) as standard.
The assays were performed with a scintillation proximity assay (SPA) method using polyvinyltoluene (PVT) wheat germ agglutinin-coupled SPA beads (Perkin Elmer). Assay buffer containing 50 mM Tris-HCl (pH 7.5), 150 mM NaCl, 0.1% w/v fatty-acid free BSA was used for all compound testing and reagent preparation. Ten-point concentration response curves with three-fold serial dilutions of test samples or controls were prepared in the assay buffer. […] Plates were sealed and shaken for 1 min on a plate shaker. Following a 10-h incubation and bead settling period at room temperature, radioactivity was determined using a MicroBeta Trilux scintillation counter (Perkin Elmer) and expressed as counts per minute (CPM). […] Samples were tested in three independent assay runs on three different days.
All test sample concentration responses were normalized to the control response and calculated as a percent of the maximal response after correcting for nonspecific binding as shown below: %Specific Inhibition=100%−[(CPM−MIN)/(MAX−MIN)×100%]
Percent specific binding (y-axis) was plotted vs log concentration of compound (x-axis) using Prism Version 9.3.1 (GraphPad Software). Individual measurements are provided as Source Data.

[3] = mean of 3 runs, read-out: hIRA Binding Ki Mean
[4] = run 1, read-out: hIRA Binding Ki Run 1
[5] = run 2, read-out: hIRA Binding Ki Run 2
[6] = run 3, read-out: hIRA Binding Ki Run 3

T2 sequence (P06213 28-1370 isoform P06213-2 limits assumed): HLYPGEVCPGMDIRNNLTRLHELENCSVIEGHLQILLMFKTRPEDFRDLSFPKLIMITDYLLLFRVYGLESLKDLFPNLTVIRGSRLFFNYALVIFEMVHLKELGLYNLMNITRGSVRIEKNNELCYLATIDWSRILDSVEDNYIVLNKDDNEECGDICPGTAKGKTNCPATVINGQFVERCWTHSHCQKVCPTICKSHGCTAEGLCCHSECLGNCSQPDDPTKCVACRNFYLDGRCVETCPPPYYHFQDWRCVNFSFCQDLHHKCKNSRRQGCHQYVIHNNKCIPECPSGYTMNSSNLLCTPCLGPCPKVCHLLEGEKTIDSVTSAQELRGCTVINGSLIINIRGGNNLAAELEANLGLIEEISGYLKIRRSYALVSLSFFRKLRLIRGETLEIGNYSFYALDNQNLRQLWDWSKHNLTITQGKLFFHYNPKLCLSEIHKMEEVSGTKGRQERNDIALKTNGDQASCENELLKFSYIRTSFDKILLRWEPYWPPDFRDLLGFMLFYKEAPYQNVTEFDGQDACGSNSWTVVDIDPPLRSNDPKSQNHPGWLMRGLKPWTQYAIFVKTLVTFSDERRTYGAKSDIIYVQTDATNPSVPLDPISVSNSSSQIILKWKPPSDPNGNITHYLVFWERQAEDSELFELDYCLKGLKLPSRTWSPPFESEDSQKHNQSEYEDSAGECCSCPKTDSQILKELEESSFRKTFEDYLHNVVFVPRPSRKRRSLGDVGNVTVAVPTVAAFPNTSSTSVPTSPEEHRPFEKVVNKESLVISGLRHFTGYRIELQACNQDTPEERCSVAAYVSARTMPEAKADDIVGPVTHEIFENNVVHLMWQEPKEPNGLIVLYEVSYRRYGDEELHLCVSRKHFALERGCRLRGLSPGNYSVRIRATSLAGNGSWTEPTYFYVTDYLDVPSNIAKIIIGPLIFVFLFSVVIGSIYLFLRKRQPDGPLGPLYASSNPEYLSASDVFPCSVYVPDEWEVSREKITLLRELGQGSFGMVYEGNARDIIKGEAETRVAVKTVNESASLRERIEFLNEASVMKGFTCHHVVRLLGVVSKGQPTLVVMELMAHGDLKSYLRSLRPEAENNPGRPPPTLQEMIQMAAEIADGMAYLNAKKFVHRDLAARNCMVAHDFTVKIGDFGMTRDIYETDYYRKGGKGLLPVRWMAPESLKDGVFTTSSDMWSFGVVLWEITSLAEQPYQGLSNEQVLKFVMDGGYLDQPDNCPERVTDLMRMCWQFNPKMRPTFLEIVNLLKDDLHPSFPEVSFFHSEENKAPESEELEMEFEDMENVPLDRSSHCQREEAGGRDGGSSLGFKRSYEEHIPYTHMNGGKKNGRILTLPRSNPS
T2 sequence (P06213 763-1382 partner limits assumed): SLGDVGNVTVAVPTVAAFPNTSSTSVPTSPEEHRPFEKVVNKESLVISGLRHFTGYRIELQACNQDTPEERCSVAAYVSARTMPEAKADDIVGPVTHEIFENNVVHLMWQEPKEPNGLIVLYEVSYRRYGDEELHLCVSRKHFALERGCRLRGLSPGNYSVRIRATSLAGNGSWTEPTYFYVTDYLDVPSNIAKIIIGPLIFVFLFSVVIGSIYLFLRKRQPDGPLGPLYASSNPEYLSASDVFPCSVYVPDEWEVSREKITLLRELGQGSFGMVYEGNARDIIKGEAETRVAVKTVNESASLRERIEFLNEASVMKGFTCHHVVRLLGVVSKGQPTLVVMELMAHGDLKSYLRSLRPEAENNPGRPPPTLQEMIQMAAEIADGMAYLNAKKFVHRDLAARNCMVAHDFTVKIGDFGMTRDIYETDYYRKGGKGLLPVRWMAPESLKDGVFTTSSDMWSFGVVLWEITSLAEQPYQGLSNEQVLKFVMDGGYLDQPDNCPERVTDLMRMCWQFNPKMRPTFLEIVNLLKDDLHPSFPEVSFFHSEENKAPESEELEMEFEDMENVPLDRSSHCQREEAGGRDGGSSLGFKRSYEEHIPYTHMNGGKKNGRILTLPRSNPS
T1 sequence (P06213 28-1370 isoform P06213-2 limits assumed): as the sequence (P06213 28-1370 isoform P06213-2 limits assumed) above
T1 sequence (P06213 763-1382 partner limits assumed): as the sequence (P06213 763-1382 partner limits assumed) above

hIRA Phosph IC50 Run 1 [1]	hIRA Phosph IC50 Run 2 [1]	hIRA Phosph IC50 Run 3 [1]	IC50 [1]	Ki [2, 3]	Ki [2, 4]	Ki [2, 5]	Ki [2, 6]	binding of the mutant peptide to hIR-A (in words) ([2]; alanine substitution in IM172N22(-))	reduction in ki for hIR-A on substitution [2]	Compound
4.745 µM	4.291 µM	4.55 µM	4.53 µM	0.952 µM	0.952 µM	0.835 µM	1.068 µM			CC(=O)N[C@@H](CO)C(=O)N[C@@H](CC(C)C)C(=O)N[C@@H](CCC(=O)O)C(=O)N[C@@H](CCC(=O)O)C(=O)N[C@@H](CCC(=O)O)C(=O)N[C@@H](Cc1c[nH]c2ccccc12)C(=O)N[C@@H](C)C(=O)N[C@@H](CCC(N)=O)C(=O)N[C@@H](C)C(=O)N[C@@H](CCC(=O)O)C(=O)N[C@H]1CSSC[C@@H](C(=O)N2CCC[C@H]2C(=O)N2CCC[C@H]2C(=O)N[C@@H](CO)C(=O)N[C@@H](CCC(=O)O)C(=O)N[C@@H](CO)C(N)=O)NC(=O)[C@H](CCCNC(=N)N)NC(=O)CNC(=O)[C@H](Cc2ccc(O)cc2)NC(=O)[C@H](C(C)C)NC(=O)[C@H](CCC(=O)O)NC1=O [Peptide I9A] (Ac-SLEEEWAQAECEVYGRCPPSES-NH2; disulfide 11-17)
7.523 µM	7.642 µM	7.687 µM	7.62 µM	> 5 µM	>5 µM	>5 µM	>5 µM	no detectable binding		CC[C@H](C)[C@H](NC(=O)[C@H](CCC(N)=O)NC(=O)[C@H](C)NC(=O)[C@H](Cc1c[nH]c2ccccc12)NC(=O)[C@H](CCC(=O)O)NC(=O)[C@H](CCC(=O)O)NC(=O)[C@H](CCC(=O)O)NC(=O)[C@H](C)NC(=O)[C@H](CO)NC(C)=O)C(=O)N[C@@H](CCC(=O)O)C(=O)N[C@H]1CSSC[C@@H](C(=O)N2CCC[C@H]2C(=O)N2CCC[C@H]2C(=O)N[C@@H](CO)C(=O)N[C@@H](CCC(=O)O)C(=O)N[C@@H](CO)C(N)=O)NC(=O)[C@H](CCCNC(=N)N)NC(=O)CNC(=O)[C@H](Cc2ccc(O)cc2)NC(=O)[C@H](C(C)C)NC(=O)[C@H](CCC(=O)O)NC1=O [Peptide L2A] (Ac-SAEEEWAQIECEVYGRCPPSES-NH2; disulfide 11-17)
0.158 µM	0.143 µM	0.123 µM	0.141 µM	0.0231 µM	0.0206 µM	0.0212 µM	0.0273 µM		lower than 5 fold	CC[C@H](C)[C@H](NC(=O)[C@H](CCC(N)=O)NC(=O)[C@H](C)NC(=O)[C@H](Cc1c[nH]c2ccccc12)NC(=O)[C@H](CCC(=O)O)NC(=O)[C@H](CCC(=O)O)NC(=O)[C@H](CCC(=O)O)NC(=O)[C@H](CC(C)C)NC(=O)[C@H](CO)NC(C)=O)C(=O)N[C@@H](CCC(=O)O)C(=O)N[C@H]1CSSC[C@@H](C(=O)N[C@@H](C)C(=O)N2CCC[C@H]2C(=O)N[C@@H](CO)C(=O)N[C@@H](CCC(=O)O)C(=O)N[C@@H](CO)C(N)=O)NC(=O)[C@H](CCCNC(=N)N)NC(=O)CNC(=O)[C@H](Cc2ccc(O)cc2)NC(=O)[C@H](C(C)C)NC(=O)[C@H](CCC(=O)O)NC1=O [Peptide P18A] (Ac-SLEEEWAQIECEVYGRCAPSES-NH2; disulfide 11-17)
0.172 µM	0.109 µM	0.148 µM	0.143 µM	0.014 µM	0.013 µM	0.0129 µM	0.0162 µM		lower than 5 fold	CC[C@H](C)[C@H](NC(=O)[C@H](CCC(N)=O)NC(=O)[C@H](C)NC(=O)[C@H](Cc1c[nH]c2ccccc12)NC(=O)[C@H](CCC(=O)O)NC(=O)[C@H](CCC(=O)O)NC(=O)[C@H](CCC(=O)O)NC(=O)[C@H](CC(C)C)NC(=O)[C@H](CO)NC(C)=O)C(=O)N[C@@H](CCC(=O)O)C(=O)N[C@H]1CSSC[C@@H](C(=O)N2CCC[C@H]2C(=O)N[C@@H](C)C(=O)N[C@@H](CO)C(=O)N[C@@H](CCC(=O)O)C(=O)N[C@@H](CO)C(N)=O)NC(=O)[C@H](CCCNC(=N)N)NC(=O)CNC(=O)[C@H](Cc2ccc(O)cc2)NC(=O)[C@H](C(C)C)NC(=O)[C@H](CCC(=O)O)NC1=O [Peptide P19A] (Ac-SLEEEWAQIECEVYGRCPASES-NH2; disulfide 11-17)
0.084 µM	0.092 µM	0.099 µM	0.0919 µM	0.00605 µM	0.00517 µM	0.00667 µM	0.00631 µM		lower than 5 fold	CC[C@H](C)[C@H](NC(=O)[C@H](C)NC(=O)[C@H](C)NC(=O)[C@H](Cc1c[nH]c2ccccc12)NC(=O)[C@H](CCC(=O)O)NC(=O)[C@H](CCC(=O)O)NC(=O)[C@H](CCC(=O)O)NC(=O)[C@H](CC(C)C)NC(=O)[C@H](CO)NC(C)=O)C(=O)N[C@@H](CCC(=O)O)C(=O)N[C@H]1CSSC[C@@H](C(=O)N2CCC[C@H]2C(=O)N2CCC[C@H]2C(=O)N[C@@H](CO)C(=O)N[C@@H](CCC(=O)O)C(=O)N[C@@H](CO)C(N)=O)NC(=O)[C@H](CCCNC(=N)N)NC(=O)CNC(=O)[C@H](Cc2ccc(O)cc2)NC(=O)[C@H](C(C)C)NC(=O)[C@H](CCC(=O)O)NC1=O [Peptide Q8A] (Ac-SLEEEWAAIECEVYGRCPPSES-NH2; disulfide 11-17)
0.583 µM	0.517 µM	0.744 µM	0.615 µM	0.228 µM	0.211 µM	0.237 µM	0.235 µM			CC[C@H](C)[C@H](NC(=O)[C@H](CCC(N)=O)NC(=O)[C@H](C)NC(=O)[C@H](Cc1c[nH]c2ccccc12)NC(=O)[C@H](CCC(=O)O)NC(=O)[C@H](CCC(=O)O)NC(=O)[C@H](CCC(=O)O)NC(=O)[C@H](CC(C)C)NC(=O)[C@H](CO)NC(C)=O)C(=O)N[C@@H](CCC(=O)O)C(=O)N[C@H]1CSSC[C@@H](C(=O)N2CCC[C@H]2C(=O)N2CCC[C@H]2C(=O)N[C@@H](CO)C(=O)N[C@@H](CCC(=O)O)C(=O)N[C@@H](CO)C(N)=O)NC(=O)[C@H](C)NC(=O)CNC(=O)[C@H](Cc2ccc(O)cc2)NC(=O)[C@H](C(C)C)NC(=O)[C@H](CCC(=O)O)NC1=O [Peptide R16A] (Ac-SLEEEWAQIECEVYGACPPSES-NH2; disulfide 11-17)
